ChEMBL document CHEMBL2440097, “Triphenylphosphonium salts of 1,2,4-benzothiadiazine 1,1-dioxides related to diazoxide targeting mitochondrial ATP-sensitive potassium channels” (Bioorg Med Chem Lett, 2013)
The source made the active and inactive calls. The calls are words filed in the database; no cut-off is given here.

Experiments:
H9c2 [1] = experiment: Effect on ATP production in […] H9C2 cells up to 10 uM after 24 hrs by CellTiter-Glo luminescent test; format: functional, cell-based
[2] = molecular target: Kir6.2/SUR1 (Rattus norvegicus) (UniProt P70673+Q09429); experiment: Activation of Kir6.2/SUR1 in rat pancreatic islets assessed as residual glucose-induced insulin release at 10 uM relative to control
H9c2 [3] = experiment: Effect on metabolic activity in […] H9C2 cells up to 10 uM incubated for 1 hr followed by paraquat addition measured after 24 hrs by CellTiter 96 Aqueous non-radioactive cell proliferation assay; format: functional, cell-based
H9c2 [4] = experiment: Effect on maximal respiratory capacity in […] H9C2 cells at 10 uM by high resolution oxygraphic analysis; format: functional, cell-based
H9c2 [5] = experiment: Effect on routine respiration in […] H9C2 cells at 10 uM by high resolution oxygraphic analysis; format: functional, cell-based
[6] = Drug uptake in mitochondria of […] H9C2 cells at 1 x 10^-4 M after 2 hrs by LC-MS analysis; format: ADME; settings: h9c2, 2 h, 100 µM
[7] = Drug uptake in cytosol of […] H9C2 cells at 1 x 10^-4 M after 2 hrs by LC-MS analysis; format: ADME, cell-based; settings: 100 µM
H9c2 [8] = experiment: Effect on oligomycin-inhibited leak respiration in […] H9C2 cells at 10 uM by high resolution oxygraphic analysis; format: functional, cell-based

Q: Which results are given for `C[C@H](COC(=O)CCC[P+](c1ccccc1)(c1ccccc1)c1ccccc1)NC1=NS(=O)(=O)c2cc(Cl)ccc2N1`?
A: Activity (H9c2 [1]): inactive; Activity [2]: 63.7%; Activity (H9c2 [3]): inactive; Activity (H9c2 [4]): inactive; Activity (H9c2 [5]): inactive

Q: Which Activity [2] does the source give for `CC1=Nc2ccc(Cl)cc2S(=O)(=O)N1` here?
A: 73.9%

Q: For `C[C@H](COC(=O)CC[P+](c1ccccc1)(c1ccccc1)c1ccccc1)NC1=NS(=O)(=O)c2cc(Cl)ccc2N1`, which Activity (H9c2 [1]) is on record?
A: inactive

Q: And the Activity [2]?
A: 56%

Q: And the Activity (H9c2 [3])?
A: inactive

Q: What about the Activity (H9c2 [4]) of the same compound?
A: inactive

Q: What about the Activity (H9c2 [5]) of the same compound?
A: inactive

Q: Which Drug uptake [6] does the source give for `C[C@H](COC(=O)C[P+](c1ccccc1)(c1ccccc1)c1ccccc1)NC1=NS(=O)(=O)c2cc(Cl)ccc2N1.[Cl-]` here?
A: Active

Q: And the Activity (H9c2 [1])?
A: inactive

Q: What about the Drug uptake [7] of the same compound?
A: Active

Q: And the Activity [2]?
A: 27%

Q: What about the Activity (H9c2 [8]) of the same compound?
A: Active

Q: What about the Activity (H9c2 [3]) of the same compound?
A: inactive

Q: And the Activity (H9c2 [4])?
A: inactive

Q: What about the Activity (H9c2 [5]) of the same compound?
A: inactive
